# In patent US20210371817A1, “COMPOSITIONS AND METHODS FOR PRECISE PATTERNING OF POSTERIOR NEUROECTODERM FROM HUMAN PLURIPOTENT STEM CELLS” (WISCONSIN ALUMNI RESEARCH FOUNDATION, priority 2013, published 2021):
# Entries after “also recorded” stand apart in the source; their conditions may differ.
# Columns and labels:
# [1] = tested on: neuromesodermal progenitors; assay: Accelerated neuronal differentiation of neuromesodermal progenitors; format: cell-based, human; settings: DAPT 1 μM; within 7 days
# Experimental: For assessment of columnar identity by FoxP1 expression, cells were bulk passaged by scraping and re-seeded in VTN-NC-coated chamber slides at a 1:200 ratio in E6 medium containing 1 μM RA and 100 nM purmorphamine (PM; Cayman Chemicals). RA/PM treatment was carried out for 7 days, followed by an additional 7 day treatment with 10 ng/ml brain-derived neurotrophic factor (BDNF; Peprotech), 10 ng/ml glial-derived neurotrophic factor (GDNF; Peprotech), and cAMP (1 μM; Sigma). For accelerated neuronal differentiation, neuromesodermal progenitors were treated with 1 μM RA, 2 μM PM, and 1 μg/ml recombinant sonic hedgehog (SHH) for 2 days, then passaged with ACCUTASE® and re-seeded in VTN-NC coated chamber slides at 1×10^4 cells/cm^2 in E6 medium containing 1 μM RA, 1 μM DAPT (Cayman Chemicals), 10 ng/ml BDNF, 10 ng/ml GDNF, and 1 μM cAMP for 7 days.
# Immunocytochemistry. Immunocytochemistry was conducted as previously described. Primary antibodies against Sox2 (1:500), brachyury (1:500), Pax6 (rabbit; 1:500; Covance), N-cadherin (mouse; 1:500; BD Biosciences), Otx2 (goat; 1:500; R&D Systems), HoxB4 (rat; 1:50; DSHB), HoxD10 (goat; 1:500; R&D Systems), NeuN (mouse; 1:100; Millipore), Hb9 (mouse; 1:50; DSHB), ISL1 (mouse; 1:100; DSHB), and FoxP1 (rabbit; 1:20,000; Abcam) were utilized. Samples were visualized on a Nikon Ti-E epifluorescence microscope or a Nikon AIR confocal microscope. […]
# neuromesodermal cultures = assay: Effect of signaling pathway inhibitors on neuromesodermal identity (Sox2 and T by flow cytometry); settings: for Sox2+ cells: LY-294002 10 μM, U0126 10 μM, GF109203X 3 μM, or all three at 1 μM, after 2 days
# Source text: (FIG. 13A) Timeline of neuromesodermal differentiation and inhibitor addition. (FIG. 13B) Neuromesodermal identity assessed by Sox2 and Brachyury (T) expression after two days. Grey histograms, IgG control. Red histograms, label of interest. LY, LY-294002; U0126, U0126; Gf, GF109203X.
# In an attempt to identify which downstream signaling pathways are responsible for FGF's effects, we performed our protocol with various combinations of a PI3K inhibitor (LY-294002), an MEK inhibitor (U0126), and a PKC inhibitor (GF109203X), and measured Sox2 and T levels using flow cytometry.
# [2] = tested on: neuromesodermal progenitors; assay: Neuroectoderm or mesoderm fate transition of neuromesodermal progenitors by flow cytometry; format: cell-based, human
# Experimental: Assessment of neuroectoderm or mesoderm fate transition by flow cytometry. Grey histogram, IgG control; red histogram, antigen of interest. Data are presented as mean±standard deviation calculated from two biological replicates. (FIG. 8B) For experiments in panels FIGS. 8C-8F, neuromesodermal propagation was halted by removing FGF8b/CHIR 99021/GDF11 and adding RA. Assays were conducted after 4 days of RA treatment. (FIG. 8C) HOX profiles generated after RA treatment. Each gene is normalized to its maximum expression. Error bars are standard deviation calculated from duplicate reactions. (FIG. 8D) HoxB4 and HoxD10 expression in neuroepithelial cultures after RA treatment. Scale bars, 100 m. (FIG. 8E) Purity of Sox2, Pax6, HoxB4, and HoxD10 after 4 days of RA treatment. Sox2, Pax6, and HoxB4 were quantified using flow cytometry and HoxD10 was quantified by manual counting of dissociated cells ([…]). Error bars are standard deviation calculated from at least two biological replicates. […] (FIG. 8F) Motor neuron differentiation at cervical, thoracic, and lumbar spinal cord depths, where the motor neuron precursors show region-specific patterns of FoxP1, Isl1, and Hb9 co-expression. (FIG. 8G) Neuronal maturation from cervical, thoracic, and lumbar patterned NSCs, as assessed by immunocytochemistry (top panel; DAPI (blue) is overlaid in all images; Scale bars, 20 m) and RT-PCR (50 cycles; bottom panel).
# Flow cytometry. Flow cytometry was conducted as described in the Examples above. Primary antibodies against Sox2 (mouse; 1:1000; Millipore), brachyury (goat; 1:200; R&D Systems), Pax6 (mouse; 1:200; DSHB), and HoxB4 (rat; 1:50; DSHB) were utilized. Samples were run on a FACSCaliber (BD Biosciences) and data were analyzed using Cyflogic software. Positive events were quantified by gating above the top 1% of species-matched IgG controls.
# We next evaluated the transition of neuromesodermal progenitors to definitive neural progenitors. RA secreted from somites in response to declining FGF signaling elicits dorsal/ventral patterning and expression of the neuroectoderm marker Pax6 in vivo^16, 26, which led us to suspect RA serves as both the neuroectoderm fate switch and HOX ‘stop signal’. We first investigated the ability of RA to initiate neuroectoderm specification from neuromesodermal progenitors. […] At any point in neuromesodermal differentiation, the addition of RA generated highly pure (>83%) Pax6^+ neuroectoderm (FIGS. 8B-8E and FIGS. 9A-9C).
# H9 hESCs = assay: HOX, OTX2 and T gene expression by RT-PCR/qPCR during hESC differentiation with morphogens; format: cell-based, human
# Experimental: hPSC differentiation. hPSCs were washed once with phosphate-buffered saline (PBS; Invitrogen), dissociated with ACCUTASE® (Invitrogen) for 3 min, and collected by centrifugation. hPSCs were then seeded onto VTN-NC-coated plates in E8 medium containing 10 μM ROCK inhibitor (Y27632; R&D Systems). Seeding density was 2×10^5 cells/cm^2. The following day, the cells were switched to E6 medium (same composition as E8 medium minus FGF2 and TGFβ 1). Morphogen treatments were then carried out according to the figures in the text. Cells were supplemented with FGF8b (100-200 ng/ml; Peprotech), CHIR99021 (3-6 μM; Tocris), and/or RA (3 μM; Sigma).
# Reverse transcriptase polymerase chain reaction (RT-PCR). Total RNA was extracted from cells using TRIZOL® reagent (Invitrogen) according to the manufacturer's instructions. RNA was then subjected to reverse-transcription using a Thermoscript™ RT-PCR kit (Invitrogen) in a 20 μL mixture according to the manufacturer's instructions. The resulting cDNA was then amplified in a 25 μL mixture containing 10×PCR buffer, 0.2 mM dNTP, 1.5 mM MgCl2, 0.5 μM of each primer, and 1 U Taq DNA polymerase (Invitrogen). Amplified products were resolved on 2% agarose gels containing SYBR Safe (Invitrogen) and visualized with a VersaDoc (BioRad). Primer sequences can be found in Table 3. All amplifications were carried out for 35 cycles. HOXC5 and HOXC6 were amplified at 58° C., all others with an annealing temperature of 55° C.
# Propagation and differentiation of neuromesodermal progenitors. H9 hESCs (passage 25-45), H9 ishcat2 hESCs (passage 33-43), and IMR90-4 iPSCs (passage 31-40) were maintained in E8 medium on MATRIGEL© (BD Biosciences) as previously described. To initiate differentiation, hPSCs were passaged with ACCUTASE© (Life Technologies) onto vitronectin (VTN-NC)-coated plates at a density of 1×10^5 cells/cm^2 as previously described. The following day, cells were changed to E6 medium. 24 h later, cells were changed to E6 medium containing 200 ng/ml FGF8b (Peprotech). 24 h later, cells were washed once with 2 ml PBS, treated with ACCUTASE® for 2 min, and removed from the surface by gentle pipetting. After collection by centrifugation, cells were gently resuspended in E6 medium containing 200 ng/ml FGF8b and CHIR99021 (CHIR, concentration varied depending on cell line; Tocris) and re-seeded on VTN-NC-coated plates at a density of 1.5×10^5 cells/cm^2. Medium was not changed until 48 h after passaging. This passaging process was repeated on day 3 of CHIR 99021 treatment (re-seed density of 1.2×10^5 cells/cm^2) if extended neuromesodermal propagation was required, and 50 ng/ml GDF11 (Peprotech) was added on day 4 of CHIR 99021 treatment to initiate lumbar patterning. Cells were changed to E6 medium containing 1 μM retinoic acid (RA; Sigma) to facilitate neural transition.
# qPCR. Total RNA was extracted from cultured cells using TRIZOL® (Life Technologies) according to the manufacturer's instructions. After isolation, 2-5 μg of total RNA was immediately subjected to reverse transcription using the Thermoscript™ RT-PCR kit (Life Technologies) in a 20 μL reaction according to the manufacturer's instructions. […] For all experiments, ΔΔCt values for each gene were calculated relative to ribosomal protein S18 (RPS18) RNA levels and converted to fold difference assuming 100% primer efficiency, then normalized to maximum expression levels as indicated in each figure legend. […]
# IMR90-4 iPSCs = assay: Neuromesodermal differentiation from IMR90-4 iPSCs; format: cell-based, human
# Experimental: FIGS. 11A-11C show neuromesodermal differentiation from IMR90-4 iPSCs. (FIG. 11A) Timeline of neuromesodermal differentiation. (FIG. 11B) Neuromesodermal identity assessed during differentiation in 2 or 3 μM CHIR 99021. Grey histograms, IgG control. Red histograms, label of interest. Data are presented as mean±standard deviation calculated from two biological replicates. […] (FIG. 11C) Colinear HOX activation observed by qPCR during neuromesodermal differentiation. Each gene is normalized to its maximum expression. Error bars are standard deviation calculated from duplicate reactions.
# Differentiation was conducted according to the protocol of FIG. 11A. Neuromesodermal identity was assessed during differentiation in both 2 and 3 μM CHIR (FIG. 11B). Grey histograms are IgG control, and red histograms are the label of interest. […] During neuromesodermal propagation, progressive HOX activation was verified by qPCR (FIG. 11C).
# neuromesodermal cells = assay: Pax6 and HoxD10 expression after GDF11 with or without dorsomorphin, then RA; format: cell-based, human; settings: dorsomorphin with GDF11 and throughout RA treatment
# Source text: (FIG. 7A) Timeline of differentiation. (FIG. 7B) qPCR assessment of lumbar/sacral gene expression at day 12. A minimum concentration of GDF11 is required to activate HoxD10 and HoxA11. Each gene is normalized to the maximum GDF11 dose. Error bars are standard deviation calculated from duplicate reactions. (FIG. 7C) Expression of Pax6 in response to increased GDF11 concentrations. Data were collected by flow cytometry and represented as mean±standard deviation calculated from two biological replicates. Sox2 was uniformly expressed regardless of GDF11 treatment (data not shown). […] Grey histograms, IgG control; Red histograms, Pax6. Data are representative of two biological replicates. […] Percentages were quantified as HoxD10 labeling relative to DAPI-stained nuclei (>2500 total cells counted per sample). Scale bars, 100 μm
# After neural tube closure in vivo, opposing gradients of TGFβ and SHH signaling produce distinct dorsal and ventral domains from which sensory neurons, interneurons, and motor neurons arise. Pax6, which has been identified as a neuroectoderm fate determinant, is expressed throughout most of the neural tube but is absent from the most dorsal and ventral domains. […] The ability of GDF11 to control rostral/caudal patterning is mediated by signaling via ALK5 and activation of the SMAD2/3 complex. […]
# [3] = neuromesodermal progenitors exposed to E6 medium with the substance
smiles,measurement,setting,value
C[C@H](NC(=O)Cc1cc(F)cc(F)c1)C(=O)N[C@H](C(=O)OC(C)(C)C)c1ccccc1 [DAPT],NeuN+ neuronal lineage cells,[1],> 95%
O=c1cc(N2CCOCC2)oc2c(-c3ccccc3)cccc12 [LY-294002],Sox2+ cells,neuromesodermal cultures,99%
N#CC(=C(/N)Sc1ccccc1N)/C(C#N)=C(\N)Sc1ccccc1N [U0126],Sox2+ cells,neuromesodermal cultures,99%
Cc1c[nH]c(-c2cnc(NCCNc3ccc(C#N)cn3)nc2-c2ccc(Cl)cc2Cl)n1 [CHIR 99021],Effect on ability of RA to induce Pax6 expression,[2]; added with RA,repressed its ability to induce Pax6 expression
same,Brachyury+ cells,[2]; [3],96±1%
same,Sox2+ cells,[2]; [3],50±8%
same,HOX gene activation (RT-PCR),"H9 hESCs; morphogen added to E6 medium, up to 4 days",could induce Hox gene expression; also recorded: induced progressive HOX activation from HOXA1 down to HOXC5
same,OTX2 expression reduction compared to RA,"H9 hESCs; qPCR day 5, CHIR 99021 3 μM, RA 1 μM",> 100 fold
same,Neuromesodermal identity,IMR90-4 iPSCs; 2 μM CHIR,maintained the neuromesodermal state
same,Neuromesodermal identity,IMR90-4 iPSCs; 3 μM CHIR,resulted in a mesodermal shift
c1cc(-c2cnn3cc(-c4ccc(OCCN5CCCCC5)cc4)cnc23)ccn1 [dorsomorphin],Pax6+ cells,neuromesodermal cells,83±4%
CN(C)CCCn1cc(C2=C(c3c[nH]c4ccccc34)C(=O)NC2=O)c2ccccc21 [GF109203X],maximum dose that did not kill all cells,neuromesodermal cultures,3 µM
same,Sox2+ cells,neuromesodermal cultures,99%
